# According to ChEMBL document CHEMBL1156122, “Protein tyrosine phosphatase 1B inhibitors isolated from Morus bombycis” (Bioorg Med Chem Lett, 2009):
# Biological target: T1, Tyrosine-protein phosphatase non-receptor type 1 (Homo sapiens, UniProt P18031)
# T1 sequence (P18031 whole entry): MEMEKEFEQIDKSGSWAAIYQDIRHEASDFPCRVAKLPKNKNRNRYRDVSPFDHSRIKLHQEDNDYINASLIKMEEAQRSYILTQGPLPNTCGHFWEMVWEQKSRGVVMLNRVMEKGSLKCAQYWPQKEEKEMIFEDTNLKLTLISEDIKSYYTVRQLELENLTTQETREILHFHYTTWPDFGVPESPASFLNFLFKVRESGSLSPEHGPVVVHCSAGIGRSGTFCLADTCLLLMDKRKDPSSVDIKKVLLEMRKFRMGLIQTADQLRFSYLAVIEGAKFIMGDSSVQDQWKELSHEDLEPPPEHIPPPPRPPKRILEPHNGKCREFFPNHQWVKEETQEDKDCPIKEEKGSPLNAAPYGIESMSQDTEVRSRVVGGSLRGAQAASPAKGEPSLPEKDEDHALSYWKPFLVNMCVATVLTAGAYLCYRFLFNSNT
# Experiment: Inhibition of human recombinant PTP1B
row,Structure (SMILES),IC50 [µM]
1,CC(C)=CCC/C(C)=C/Cc1c(O)cc(O)cc1-c1cc2ccc(O)cc2o1 [ALBAFURAN A],9.2
2,CC(C)=CCc1c(O)cc(C(=O)[C@H]2[C@@H](c3c(O)ccc(C(=O)/C=C/c4ccc(O)cc4O)c3O)C=C(C)C[C@@H]2c2ccc(O)cc2O)cc1O [KUWANON J],2.7
3,CC(C)=CCc1c(O)cc(C(=O)[C@H]2[C@@H](c3c(O)ccc(C(=O)/C=C/c4ccc(O)cc4)c3O)C=C(C)C[C@@H]2c2ccc(O)cc2O)cc1O [KUWANON R],8.2
4,CC(C)=CCc1c(O)cc(C(=O)[C@H]2[C@@H](c3c(O)ccc(C(=O)/C=C/c4ccc(O)cc4)c3O)C=C(C)C[C@@H]2c2ccc(O)cc2)cc1O [KUWANON V],13.8
5,CC(C)=CCC/C(C)=C/Cc1c(O)ccc2cc(-c3cc(O)cc(O)c3CC=C(C)C)oc12 [MULBERROFURAN D],4.3
6,CC(C)=CCC/C(C)=C\CC/C(C)=C\Cc1c(O)cc(O)cc1-c1cc2ccc(O)cc2o1 [MULBERROFURAN W],2.7
